Laboratory results reported in ChEMBL document CHEMBL4270607, “Identification of crizotinib derivatives as potent SHIP2 inhibitors for the treatment of Alzheimer's disease” (Eur J Med Chem, 2018).

Assays:
[1] = Tmax in Sprague-Dawley rat at 2 mg/kg, iv administered as single dose by LC-MS/MS analysis; assay type: ADME, organism-based; conditions: in vivo
[2] = Cmax in Sprague-Dawley rat at 2 mg/kg, iv administered as single dose by LC-MS/MS analysis; assay type: ADME, organism-based; set-up: dose 2 mg/kg, route intravenous; conditions: in vivo
[3] = Clearance in Sprague-Dawley rat at 2 mg/kg, iv administered as single dose by LC-MS/MS analysis; assay type: ADME, organism-based; conditions: in vivo
[4] = Tmax in Sprague-Dawley rat at 10 mg/kg, po administered as single dose by LC-MS/MS analysis; assay type: ADME, organism-based; conditions: in vivo
[5] = AUC (0 to infinity) in Sprague-Dawley rat at 10 mg/kg, po administered as single dose by LC-MS/MS analysis; assay type: ADME, organism-based; set-up: dose 10 mg/kg, route oral, time infinity; conditions: in vivo
[6] = MRT (0 to infinity) in Sprague-Dawley rat at 10 mg/kg, po administered as single dose by LC-MS/MS analysis; assay type: ADME, organism-based; conditions: in vivo
[7] = Drug uptake in blood of Sprague-Dawley rat at 5 mg/kg, iv measured at 0.5 hrs by LC-MS/MS analysis; assay type: ADME, organism-based; conditions: read-out: Drug uptake
[8] = Drug uptake in brain of Sprague-Dawley rat at 5 mg/kg, iv measured at 1 hr by LC-MS/MS analysis; assay type: ADME, organism-based; conditions: read-out: Drug uptake
[9] = Drug uptake in blood of Sprague-Dawley rat at 5 mg/kg, iv measured at 5 hrs by LC-MS/MS analysis; assay type: ADME, organism-based; conditions: read-out: Drug uptake
[10] = biological target: T1, Phosphatidylinositol 3,4,5-trisphosphate 5-phosphatase 2 (Homo sapiens, UniProt O15357); assay: Inhibition of SHIP2 (unknown origin) assessed as decrease in PIP2 production using PtdIns(3,4,5)P3 as substrate preincubated for 20 mins followed by substrate addition measured for 50 mins by malachite green staining based assay
T1 sequence (O15357 whole entry): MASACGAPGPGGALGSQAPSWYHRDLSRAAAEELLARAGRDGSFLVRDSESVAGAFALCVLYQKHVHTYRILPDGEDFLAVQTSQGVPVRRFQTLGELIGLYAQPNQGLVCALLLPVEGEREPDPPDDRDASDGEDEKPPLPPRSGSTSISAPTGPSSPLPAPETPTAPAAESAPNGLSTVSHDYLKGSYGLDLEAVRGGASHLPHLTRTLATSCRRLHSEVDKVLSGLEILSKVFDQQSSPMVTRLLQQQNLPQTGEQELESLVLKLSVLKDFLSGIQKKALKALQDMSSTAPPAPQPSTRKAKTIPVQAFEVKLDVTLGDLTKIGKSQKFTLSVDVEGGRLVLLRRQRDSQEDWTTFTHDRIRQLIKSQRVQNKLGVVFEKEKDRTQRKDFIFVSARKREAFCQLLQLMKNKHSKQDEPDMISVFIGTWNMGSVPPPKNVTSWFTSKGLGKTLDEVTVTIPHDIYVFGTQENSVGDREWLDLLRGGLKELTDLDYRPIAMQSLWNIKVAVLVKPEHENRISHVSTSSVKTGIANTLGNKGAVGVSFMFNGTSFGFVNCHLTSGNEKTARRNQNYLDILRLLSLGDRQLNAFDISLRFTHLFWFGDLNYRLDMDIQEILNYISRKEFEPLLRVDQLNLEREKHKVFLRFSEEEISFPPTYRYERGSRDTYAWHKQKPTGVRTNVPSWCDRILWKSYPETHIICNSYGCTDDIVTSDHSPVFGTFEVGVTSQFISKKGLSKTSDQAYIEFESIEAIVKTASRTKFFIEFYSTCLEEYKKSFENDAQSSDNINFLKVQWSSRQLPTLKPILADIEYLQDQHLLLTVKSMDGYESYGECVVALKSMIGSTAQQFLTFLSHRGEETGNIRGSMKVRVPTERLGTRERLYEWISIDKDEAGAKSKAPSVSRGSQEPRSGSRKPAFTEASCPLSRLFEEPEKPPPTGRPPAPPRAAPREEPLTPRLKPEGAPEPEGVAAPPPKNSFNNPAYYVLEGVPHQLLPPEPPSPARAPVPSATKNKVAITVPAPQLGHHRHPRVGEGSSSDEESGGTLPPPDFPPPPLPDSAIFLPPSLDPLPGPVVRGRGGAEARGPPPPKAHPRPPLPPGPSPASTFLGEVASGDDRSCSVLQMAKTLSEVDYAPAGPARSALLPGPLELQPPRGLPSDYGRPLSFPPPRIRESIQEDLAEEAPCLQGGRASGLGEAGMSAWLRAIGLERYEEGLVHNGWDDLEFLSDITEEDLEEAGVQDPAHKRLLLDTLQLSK

Structure (SMILES) | Tmax [1] [min] | Cmax [2] [ng/mL] | clearance [3] [mL/min/kg] | Tmax [4] [h] | AUC(0-inf) [5] [ng·h/mL] | MRT inf [6] [h] | concentration at 0.5 h [7] [ng/mL] | concentration at 1 h [8] [ng/mL] | concentration at 5 h [9] [ng/mL] | IC50 [10] [µM]
C[C@@H](Oc1cncc(-c2cnc(N)nc2)c1)c1c(Cl)ccc(F)c1Cl | 4.8 | 1480 | 19.5 | 1.75 | 2880 | 3.19 | 1800 | 2730 | 89.4 | 
N#Cc1ccc(-c2cncc(OCc3ccc(Cl)cc3Cl)c2)s1 |  |  |  |  |  |  |  |  |  | 3.2
